# Laboratory results reported in US10160812B2, “Bispecific HER2 antibodies” (MedImmune, LLC, priority 2014, dated 2018).
# B1: 1.39.1: fully human monoclonal antibody against human HER2, parent of 39S (WO 2008/019290); VH SEQ ID NO:43, VL SEQ ID NO:44 (antibody, V domains shown)
# VH: EVQLVESGGGLVKPGGSLRLSCAASGFTFSSYSMNWVRQAPGKGLEWVSSISSSSSYIYYADSVKGRFTISRDNAKNSLYLQMNSLRAEDTAVYYCARGGDGYNYYYFDYWGQGTLVTVSS
# VL: DIVMTQSPDSLAVSLGERATITCKSSQSVFFRSNNKNCLAWYQQRPGQPPNLLIYWASSRESGVPDRFSGSGSGTDFALTISSLQTEDVAVYYCQQYFGSPFTFGPGTKVDIK
# Columns and labels:
# NCI-N87 cell = assay: Proliferation inhibition assay in serum-containing media; format: cell-based, human
# Protocol: Cell viability was determined using Cell Titer Glo from Promega according to manufacturer's instructions.
# HER2 = HER2 (Homo sapiens, UniProt P04626); details: reported value; read-out: reported affinity of the parent antibody; cited from earlier work
Molecule,inhibition of cell proliferation (NCI-N87 cell),Kd (HER2)
pertuzumab: humanized version of the murine antibody 2C4 that inhibits dimerization of HER2 with other HER receptors [reference compound],limited activity,
B1,,~2 nM
